Experimental findings from patent US20260240842A1, “METHODS TO PREVENT THERAPY RESISTANCE IN MELANOMA VIA BLOCKING GENOMIC INSTABILITY” (THE REGENTS OF THE UNIVERSITY OF CALIFORNIA, priority 2022, published 2026) are described below.

In assay [1] the test system is human BRAF^V600MUT (M229, M249, M395) or NRAS^Q61MUT (M202, M207, M245) melanoma cell lines. The assay can be described thus: Long-term clonogenic growth: emergence of acquired MAPKi-resistant colonies (DTPPs) in parental melanoma cell lines under MAPKi. The format is cell-based. The note with it: parental cell lines, FIG. 11C to 11E and FIG. 12. As to the method:
FIGS. 4A-4U. DNA-PKi and/or PARPi co-treatment prevents acquired MAPKi-resistance in human melanoma cell lines. FIGS. 4A to 4O: Long-term clonogenic growth of isogenic parental and acquired MAPKi-resistant BRAF^V600MUT (4A to 4H) or NRAS^Q61MUT (4I to 4O) human melanoma cell lines showing acquired-resistant colonies to BRAFi+MEKi (PLX4032 at 0.5 mM, AZD6244 at 0.5 mM in 4A and 4G; PLX4032 at 0.25 mM, AZD6244 at 0.25 mM in 4D; PLX4032 at 1 mM, AZD6244 at 1 mM in 4B, 4C, 4E, 4F and 4H) or MEKi (trametinib at 0.005 mM in I and 0.01 mM in 4J and 4N; trametinib at 0.1 mM in 4K, 4M and 4O) and their suppression by indicated co-treatments with DNA-PKi (NU7026) and/or PARPi (ABT888) at indicated concentrations. Top, representative cultures; bottom, quantifications over n=4 fields (mean±SD). Data representative of 2 to 4 independent repeats. Seeding densities (cells/well in 6-well dishes) and culture durations (days): (4A) 5,000; 31, (4B) 1,000; 17, (4C) 5,000; 18, (4D) 40,000; 40, (4E) 5,000; 14, (4F) 5,000; 12, (4G) 20,000; 30, (4H) 20,000; 21, (4I) 40,000; 30, (4J) 50,000; 31, (4K) 5,000; 17, (4L) 5,000; 22, (4M) 5,000; 16, (4N) 20.000; 16, and (4O) 5,000; 16. Data representative of 2 to 4 independent repeats. FIGS. 4P and 4Q: Western blot, MTT assay (upper), and clonogenic growth assay (lower) of M245 cells transduced by lentivirus harboring shVector control or shRNAs of PRKDC (4P) or LIG4 (4Q). TUBULIN, loading control. Clonogenic growth with vehicle (14 days, 5,000 cells/well in 6-well dishes) or MEKi (29 days, 50,000 cells/well in 6-well dishes) treatments. MEKi, trametinib at 0.01 μM. Representative results of two independent experiments; quantification of n=4 fields (mean±SD). FIGS. 4R and 4S: As in 4A and 4J, respectively, except DNA-PKi and/or PARPi co-treatments were performed in M229 (4R) and M245 (4S) at a later stage of MAPKi treatment (see timepoint schema). Inhibitor concentrations for M229: BRAFi+MEKi (PLX4032 at 0.5 μM, AZD6244 at 0.5 μM), NU7026 (8 μM), ABT888 (4 μM) and NU7026+ABT888 (4 μM+4 μM). Inhibitor concentrations for M245: MEKi (trametinib at 0.01 μM), NU7026 (5 μM), ABT888 (1 μM) and NU7026+ABT888 (5 μM+1 μM). Left, representative cultures; right, quantifications over n=4 fields (mean±SD). Data representative of 2 independent repeats. FIGS. 4T and 4U: As in 4A and 4J, respectively, except DNA-PKi and/or PARPi co-treatments were performed in M229 (4T) and M245 cells (4U) at the same concentrations in R and S for the entire durations (day 1-28 in 4T; day 1-30 in 4U), the first half (day 1-14 in T; day 1-15 in 4U) or the second half (day 14-28 in 4T: day 15-30 in 4U) of the total treatment course. Top, representative cultures; bottom, quantifications over n=4 fields (mean±SD). Data representative of 2 independent repeats. P values (one-way ANOVA followed by Tukey's multiple comparison test) comparing indicated cultures versus MAPKi-only cultures (4A to 4O and 4R to 4U) or shVector culture (4P and 4Q): *, p<0.05; **, p<0.01: ***, p<0.001.
FIGS. 12A-12F. DNA-PKi and/or PARPi co-treatment prevents acquired MAPKi-resistance in human melanoma cell lines. FIGS. 12A to 12F: Long-term clonogenic growth of BRAF^V600MUT (12A, 12C and 12E) or NRAS^Q61MUT (12B, 12D and 12F) cell lines showing acquired-resistant colonies to BRAFi+MEKi (PLX4032 at 0.5 mM, AZD6244 at 0.5 mM for M229 and M395; PLX4032 at 0.25 mM, AZD6244 at 0.25 mM for M249) or MEKi (trametinib at 0.005 mM for M202 and 0.01 mM for M207 and M245) and their suppression by indicated co-treatments with DNA-PKi (VX984 in 12A and 12B; AZD7648 in 12C and 12D) and/or PARPi (olaparib in 12E and 12F) at indicated concentrations. Top, representative cultures; bottom, quantifications over n=4 fields (mean±SD). Data representative of 2 independent repeats. Seeding densities (cells/well in 6-well dishes) and culture durations (days): M202 (40,000, 30), M207 (20,000, 16), M229 (5,000, 32), M245 (50,000, 31), M249 (40,000, 40), and M395 (20,000, 30). […]

Another assay deals with γH2AX. The assay can be described thus: Immunofluorescence of γH2AX nuclear foci in early on-treatment PDX tumors. Type of assay: in vivo, NSG mice. Conditions: short-term MEKi treatment in Mel_PDX1; FIG. 13G. From the text: FIGS. 13A-13H. In vivo impacts of DNA-PKi when combined with MAPKi. FIGS. 13A and 13B: Long-term follow-up of tumor volumes (13A, BRAFi+MEKi, n=5 tumors; BRAFi+MEKi+DNA-PKi, n=6 tumors) (13B, MEKi, n=6 tumors; MEKi+DNAP-PKi, n=6 tumors) and average mice body weights for 13A and 13B. Related to experiments in FIGS. 7B and 7E, respectively. FIGS. 13C and 13D, Tumor volumes (mean±SEM) of two examples of tumor models treated short-term with vehicle or indicated single versus combined agents. Inhibitors and dosages are identical to those in FIGS. 7C and 7E, respectively. The numbers of tumors and their sizes are shown in the photographs (right) taken at the times of tumor harvest (end points). FIGS. 13E to 13G: Immunofluorescence of p-ERK (13E), p-DNA-PKcs (S2056) (13F), or γH2AX (13G) levels in Mel_PDX1 tumor model, treated with vehicle or indicated single versus combined agents for 11 days (shown in 13C). DAPI, nuclear stain. Scale bar, 50 μm (13E) and 20 μm (13F and 13G). Representative images shown for two tumors analyzed per group. Quantification of p-DNA-PKcs signals obtained by taking the average of positively stained foci per nucleus (13F, representative of 4 fields). Quantification of γH2AX signals analyzed either by percentage of cells with γH2AX foci or percentage of cells with greater than 5 γH2AX foci (13G, representative of 4 fields). […]

In the case of `Cc1cc2ncnn2cc1Nc1ncc2c(n1)n(C1CCOCC1)c(=O)n2C` [AZD7648], in assay [1], the “combinatorial efficacy of next-generation DNA-PKi and PARPi with MAPKi” value is recorded as “corroborated the combinatorial efficacy”.

With `O=C(c1cc(Cc2n[nH]c(=O)c3ccccc23)ccc1F)N1CCN(C(=O)C2CC2)CC1` [olaparib], in assay [1], the “combinatorial efficacy of next-generation DNA-PKi and PARPi with MAPKi” value is “corroborated the combinatorial efficacy”.

`CC(=O)Nc1cccc(-n2c(=O)n(C3CC3)c(=O)c3c(Nc4ccc(I)cc4F)n(C)c(=O)c(C)c32)c1` [trametinib]: in the assay with γH2AX, the “tumor cells with gH2AX nuclear foci” value is more than 50%.
